Experimental data as given in US8513417B2, “Method for synthesis of nitroxyl radical” (Kyushu University, National University Corporation, priority 2008, dated 2013).

Experiments:
[1] = Reactivity of nitroxyl radical to hydroxyl radical (UV/H2O2, X-band ESR); format: physicochemical; details: nitroxyl radical 25 μM, H2O2 10 mM, UV 100 to 120 mW/cm^2, X-band ESR
Protocol: In order to examine reactivities of the following 3 types of TEMPO-based nitroxyl radical derivatives, in which substituents at position-2 and position-6 in one derivative are different from those in another derivative, to free radical:
[drawing 49] according to the method of Takeshita et al. (Biochimica et Biophysica Acta, 1573, 156-164 (2002)), the following procedure was carried out. Nitroxyl radical (25 μM) was mixed with H2O2 (10 mM), and thereafter a specific amount of the mixture was collected in a capillary and irradiated with UV (100 to 120 mW/cm^2) to generate OH radical. The reactivities thereof to the nitroxyl radical were examined using X-band ESR.

[2] = Reactivity of nitroxyl radical to ascorbic acid (decrease in ESR signal intensity over time); format: physicochemical; details: nitroxyl radical 10 to 50 μM, ascorbic acid 100 μM to 2 mM, X-band ESR
Protocol: It has been reported that nitroxyl radical also reacts with a reduction substance (Couet, W. R., Tetrahedron, 41(7), 1165-1172 (1985); Finkelstein, E., Biochimica et Biophysica Acta, 802, 90-98 (1984)). Therefore, the following procedure was carried out. After nitroxyl radical (10 to 50 μM) was mixed with ascorbic acid (100 μM to 2 mM), a specific amount of the mixture was collected in a capillary, and thereafter the measurement was started. Using X-band ESR, decrease in ESR signal intensity was observed over time, thereby examining the reactivity to ascorbic acid, which is a typical reduction substance in the living body.

For CC(C)(C)C1CC(=O)CC(C(C)(C)C)N1 (stereo not shown), which melting point is on record?
Its melting point is 55.4 °C.

With [O]N1C2(CCOCC2)CC(=O)CC12CCOCC2 [Compound 3, 2,6-dispiro-1′,1″-dipyran-piperidone-1-oxyl] as the compound, how does the “reactivities to hydroxyl radical, rank order” value [1] read?
Its value is “Compound 1>Compound 3>Compound 2”.

And the “reactivities to ascorbic acid, rank order” value [2]?
Its value is “Compound 3>Compound 2>Compound 1”.

And the “reactivity to ascorbic acid” value ([2]; FIG. 2)?
The value was “very rapidly reacts with ascorbic acid”.
